Test results: article PMC10258898, “Discovery of Novel Hydroxyimine-Tethered Benzenesulfonamides as Potential Human Carbonic Anhydrase IX/XII Inhibitors” (ACS Medicinal Chemistry Letters, 2023)
Like-named read-outs stand apart in the source and are kept apart here.

What was measured:
hCA IX = hCA IX (Homo sapiens, UniProt Q16790); assay: Stopped-flow CO2 hydrase assay, hCA IX inhibition
Method: (§1) as indicator, working at the absorbance maximum of 557 nm, with 20 mM Hepes (pH 7.5) as
(§2) buffer, and 20 mM Na2SO4 (for maintaining constant the ionic strength), following the initial
(§3) have been used for determining the initial velocity. The uncatalyzed rates were determined in
(§4) the same manner and subtracted from the total observed rates. Stock solutions of inhibitor
(§5) (0.1 mM) were prepared in distilled−deionized water and dilutions up to 0.01 nM were done
(§6) thereafter with the assay buffer. Inhibitor and enzyme solutions were preincubated together for 15 min at room temperature prior to assay, in order to allow for the formation of the E−I complex. The inhibition constants were subsequently obtained by nonlinear least-squares
(§7) methods using PRISM 3 and the Cheng−Prusoff equation, as reported earlier, and represent
(§8) the mean from at least three different determinations. All CA isofoms were recombinant ones
(§9) obtained in-house as reported earlier2,3.

hCA XII = hCA XII (Homo sapiens, UniProt O43570); assay: Stopped-flow CO2 hydrase assay, hCA XII inhibition; details: read-out: Ki (nM) hCA XII, mean from 3 different assays, errors ±5–10%
Method: as §1, §2, §3, §4, §5, §6, §7, §8, §9

[1] = read-out: Ki (nM) hCA IX, mean from 3 different assays, errors ±5–10%, stopped-flow CO2 hydrase assay

hCA XII, sequence (O43570 25-354): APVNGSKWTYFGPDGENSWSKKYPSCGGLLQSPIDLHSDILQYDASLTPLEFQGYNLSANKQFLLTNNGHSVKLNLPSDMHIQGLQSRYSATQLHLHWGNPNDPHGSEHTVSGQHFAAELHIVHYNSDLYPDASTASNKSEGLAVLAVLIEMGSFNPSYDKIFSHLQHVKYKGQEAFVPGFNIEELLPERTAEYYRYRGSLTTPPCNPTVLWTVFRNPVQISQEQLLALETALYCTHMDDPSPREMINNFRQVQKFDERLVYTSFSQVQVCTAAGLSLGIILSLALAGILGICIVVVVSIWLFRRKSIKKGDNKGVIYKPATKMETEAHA

| Compound | Ki (hCA IX; [1]) | melting point | Ki (hCA XII) | Ki (hCA IX) |
| --- | --- | --- | --- | --- |
| NS(=O)(=O)c1ccc(N2CCN(/C(=N/O)c3ccc(O)cc3)CC2)cc1 [Compound 28] | 1180 nM | 320 to 321 °C |  |  |
| NS(=O)(=O)c1ccc(N2CCN(/C(=N/O)c3ccc(F)cc3)CC2)cc1 [Compound 33] | 1340 nM | 263 °C |  |  |
| Cc1ccc(/C(=N\O)N2CCN(c3ccc(S(N)(=O)=O)cc3)CC2)cc1 [Compound 34] | > 10000 nM | 263 to 264 °C |  |  |
| NS(=O)(=O)c1ccc(N2CCN(/C(=N/O)c3ccc([N+](=O)[O-])cc3)CC2)cc1 [Compound 32] | 912 nM | 302 to 303 °C | > 10000 nM |  |
| COc1ccc(/C(=N\O)N2CCN(c3ccc(S(N)(=O)=O)cc3)CC2)cc1 [Compound 31] | 739 nM | 310 to 311 °C |  |  |

Second part, the molecule after the results:

| Ki (hCA IX; [1]) | melting point | Ki (hCA XII) | Ki (hCA IX) | Compound |
| --- | --- | --- | --- | --- |
| 110 nM | 310 to 311 °C |  |  | NS(=O)(=O)c1ccc(N2CCN(/C(=N/O)c3ccncc3)CC2)cc1 [Compound 27] |
| 121 nM |  |  |  | NS(=O)(=O)c1ccc(N2CCN(/C(=N/O)c3ccccc3)CC2)cc1 [Compound 29] |
|  | 321 °C |  | 43 nM | NS(=O)(=O)c1ccc(N2CCN(C(=NO)c3ccc(Cl)cc3)CC2)cc1 [Compound 30] |
